Source: patent US20210382058A1, “PATIENT SELECTION FOR TREATMENT OF MYC POSITIVE CANCERS WITH INDENOISOQUINOLINES” (Purdue Research Foundation, priority 2020, published 2021)
Like-named read-outs stand apart in the source and are kept apart here.

Assays:
[1] = test system: MYC protein expression in MCF-7 breast cancer cells; assay: Western blotting of MYC protein level in MCF-7 cells; assay type: cell-based, human; conditions: Homo sapiens, MCF7; western blotting, MCF-7 cells, 0.5, 1, 2, and 4 μM, 24 hours; read-out: MYC Inhibition
Method in brief: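 Immunoblotting with ECL detection quantified MYC, with GAPDH (1:2000) as reference and anti-MYC at 1:1000.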

NCI-60 cancer cell lines = assay: NCI-60 cancer cell line drug screen (GI50, MGM); assay type: cell-based, human; conditions: Homo sapiens; for GI50: read-out: Antiproliferative Activities [GI50 (μM)]
Experimental: Cancer cells were incubated with the test compounds at five concentrations ranging from 100 μM to 10 nM for 48 h. […] The approximate average of GI50 values across the entire panel of NCI-60 cancer cell lines for each compound was recorded as the MGM value.

human topoisomerase I = target: T1, human topoisomerase I (Homo sapiens, UniProt P11387); conditions: relative topoisomerase I inhibition levels, previously determined, six levels (0 - 5, +++++ = 5); cited from earlier work
T1 sequence (P11387 1-765): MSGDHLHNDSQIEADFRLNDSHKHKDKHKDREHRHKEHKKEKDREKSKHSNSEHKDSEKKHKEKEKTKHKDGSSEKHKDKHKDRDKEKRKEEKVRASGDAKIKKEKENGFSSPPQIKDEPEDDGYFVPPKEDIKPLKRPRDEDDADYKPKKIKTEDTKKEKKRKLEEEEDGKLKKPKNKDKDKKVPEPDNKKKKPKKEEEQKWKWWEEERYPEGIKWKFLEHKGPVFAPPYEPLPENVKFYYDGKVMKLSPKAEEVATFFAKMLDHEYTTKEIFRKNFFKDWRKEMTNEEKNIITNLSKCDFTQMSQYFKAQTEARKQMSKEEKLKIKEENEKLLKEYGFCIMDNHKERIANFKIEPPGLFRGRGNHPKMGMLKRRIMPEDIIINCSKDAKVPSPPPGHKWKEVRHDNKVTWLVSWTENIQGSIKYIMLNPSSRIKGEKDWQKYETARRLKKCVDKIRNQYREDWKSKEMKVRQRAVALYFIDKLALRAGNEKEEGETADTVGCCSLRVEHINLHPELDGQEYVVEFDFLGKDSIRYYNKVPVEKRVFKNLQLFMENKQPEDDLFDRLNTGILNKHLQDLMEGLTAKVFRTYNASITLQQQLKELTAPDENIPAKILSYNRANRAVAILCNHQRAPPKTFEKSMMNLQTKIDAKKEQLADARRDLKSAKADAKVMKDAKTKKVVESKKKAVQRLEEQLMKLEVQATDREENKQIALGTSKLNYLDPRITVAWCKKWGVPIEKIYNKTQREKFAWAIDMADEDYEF

Compound `COc1cc2c(cc1O)-c1c(c3ccc([N+](=O)[O-])cc3c(=O)n1CCCN)C2=O` [Compound 38] has a minimal effective concentration [1] of 4 µM, a GI50 (NCI-60 cancer cell lines; 786-0, Renal Cancer, 786-0) of 0.34 µM and a GI50 (NCI-60 cancer cell lines; A498, Renal Cancer, A498) of 0.96 µM. The GI50 (NCI-60 cancer cell lines; A549, Non-Small Cell Lung Cancer, A549/ATCC) was 1.31 µM, the GI50 (NCI-60 cancer cell lines; ACHN, Renal Cancer, ACHN) was 0.28 µM and the GI50 (NCI-60 cancer cell lines; BT-549, Breast Cancer, BT-549) was 0.36 µM. It also gave a GI50 (NCI-60 cancer cell lines; CAKI-1, Renal Cancer, CAKI-1) of 0.29 µM, a GI50 (NCI-60 cancer cell lines; CCRF-CEM, Leukemia, CCRF-CEM) of 0.11 µM and a GI50 (NCI-60 cancer cell lines; COLO 205, Colon Cancer, COLO 205) of 0.69 µM. It also gave a GI50 (NCI-60 cancer cell lines; DU-145, Prostate Cancer, DU-145) of 0.43 µM, a GI50 (NCI-60 cancer cell lines; HCC 2998, Colon Cancer, HCC-2998) of 0.62 µM and a GI50 (NCI-60 cancer cell lines; HCT-15, Colon Cancer, HCT-15) of 1.49 µM. The GI50 (NCI-60 cancer cell lines; HCT-116, Colon Cancer, HCT-116) was 0.15 µM, the GI50 (NCI-60 cancer cell lines; HL-60, Leukemia, HL-60(TB)) was 1.48 µM and the GI50 (NCI-60 cancer cell lines; HOP-62, Non-Small Cell Lung Cancer, HOP-62) was 0.46 µM. The GI50 (NCI-60 cancer cell lines; HOP-92, Non-Small Cell Lung Cancer, HOP-92) was 1.34 µM, the GI50 (NCI-60 cancer cell lines; HT-29, Colon Cancer, HT29) was 0.48 µM and the GI50 (NCI-60 cancer cell lines; IGROV-1, Ovarian Cancer, IGROV1) was 1.24 µM. The GI50 (NCI-60 cancer cell lines; K562, Leukemia, K-562) was 0.77 µM, the GI50 (NCI-60 cancer cell lines; KM12, Colon Cancer, KM12) was 1.34 µM and the GI50 (NCI-60 cancer cell lines; LOX IMVI, Melanoma, LOX IMVI) was 0.3 µM. For the same compound, the GI50 (NCI-60 cancer cell lines; Leukemia, SR) was 0.04 µM, the GI50 (NCI-60 cancer cell lines; MCF7, Breast Cancer, MCF7) was 0.16 µM and the GI50 (NCI-60 cancer cell lines; MDA-MB-231, Breast Cancer, MDA-MB-231/ATCC) was 1.57 µM. For the same compound, the GI50 (NCI-60 cancer cell lines; MDA-MB-435, Melanoma, MDA-MB-435) was 1.3 µM, the GI50 (NCI-60 cancer cell lines; MDA-MB-468, Breast Cancer, MDA-MB-468) was 0.24 µM and the GI50 (NCI-60 cancer cell lines; MOLT-4, Leukemia, MOLT-4) was 0.15 µM. It also gave a GI50 (NCI-60 cancer cell lines; Malme-3M, Melanoma, MALME-3M) of 2.16 µM, a GI50 (NCI-60 cancer cell lines; Melanoma, M14) of 0.46 µM and a GI50 (NCI-60 cancer cell lines; NCI-H23, Non-Small Cell Lung Cancer, NCI-H23) of 0.38 µM. The GI50 (NCI-60 cancer cell lines; NCI-H226, Non-Small Cell Lung Cancer, NCI-H226) was 1.18 µM, the GI50 (NCI-60 cancer cell lines; NCI-H322M, Non-Small Cell Lung Cancer, NCI-H322M) was 1.39 µM and the GI50 (NCI-60 cancer cell lines; NCI-H460, Non-Small Cell Lung Cancer, NCI-H460) was 0.37 µM. For the same compound, the GI50 (NCI-60 cancer cell lines; NCI-H522, Non-Small Cell Lung Cancer, NCI-H522) was 0.78 µM, the GI50 (NCI-60 cancer cell lines; OVCAR-3, Ovarian Cancer, OVCAR-3) was 1.69 µM and the GI50 (NCI-60 cancer cell lines; OVCAR-4, Ovarian Cancer, OVCAR-4) was 1.11 µM. It also gave a GI50 (NCI-60 cancer cell lines; OVCAR-5, Ovarian Cancer, OVCAR-5) of 1.67 µM, a GI50 (NCI-60 cancer cell lines; OVCAR-8, Ovarian Cancer, OVCAR-8) of 1.01 µM and a GI50 (NCI-60 cancer cell lines; Ovarian Cancer, NCl/ADR-RES) of 2.55 µM. It also gave a GI50 (NCI-60 cancer cell lines; Prostate Cancer, PC-3) of 0.64 µM, a GI50 (NCI-60 cancer cell lines; RPMI-8226, Leukemia, RPMI-8226) of 1.02 µM and a GI50 (NCI-60 cancer cell lines; RXF 393, Renal Cancer, RXF 393) of 1.13 µM. The GI50 (NCI-60 cancer cell lines; Renal Cancer, U0-31) was 0.69 µM, the GI50 (NCI-60 cancer cell lines; SF-268, CNS Cancer, SF-268) was 0.55 µM and the GI50 (NCI-60 cancer cell lines; SF-295, CNS Cancer, SF-295) was 0.28 µM. It also gave a GI50 (NCI-60 cancer cell lines; SF-539, CNS Cancer, SF-539) of 0.67 µM, a GI50 (NCI-60 cancer cell lines; SK-MEL-2, Melanoma, SK-MEL-2) of 2.18 µM and a GI50 (NCI-60 cancer cell lines; SK-MEL-5, Melanoma, SK-MEL-5) of 1.26 µM. It also gave a GI50 (NCI-60 cancer cell lines; SK-MEL-28, Melanoma, SK-MEL-28) of 1.88 µM, a GI50 (NCI-60 cancer cell lines; SK-OV-3, Ovarian Cancer, SK-OV-3) of 1.15 µM and a GI50 (NCI-60 cancer cell lines; SN12C, Renal Cancer, SN12C) of 0.45 µM. It also gave a GI50 (NCI-60 cancer cell lines; SNB-19, CNS Cancer, SNB-19) of 1.08 µM, a GI50 (NCI-60 cancer cell lines; SNB-75, CNS Cancer, SNB-75) of 0.16 µM and a GI50 (NCI-60 cancer cell lines; SW-620, Colon Cancer, SW-620) of 0.34 µM. For the same compound, the GI50 (NCI-60 cancer cell lines; T47D, Breast Cancer, T-47D) was 0.7 µM, the GI50 (NCI-60 cancer cell lines; TK-10, Renal Cancer, TK-10) was 1.85 µM and the GI50 (NCI-60 cancer cell lines; U-251, CNS Cancer, U251) was 0.33 µM. The GI50 (NCI-60 cancer cell lines; UACC-62, Melanoma, UACC-62) was 0.95 µM, the GI50 (NCI-60 cancer cell lines; UACC-257, Melanoma, UACC-257) was 1.57 µM and the mean GI50 across NCI-60 panel (MGM) (NCI-60 cancer cell lines; average of GI50 values across the entire panel of NCI-60 cancer cell lines) was 660 nM. The “Top1 Inhibiton” value (human topoisomerase I) was “++ (medium inhibition, ++, MYC expression inhibited at 2.0 μM, or no clear dose-dependent MYC inhibition)”.
